Values of other authors, collected in patent US11071781B2, “Combination of local and systemic immunomodulative therapies for enhanced treatment of cancer” (Provectus Pharmatech, Inc., priority 2011, dated 2021).
Values joined by “and” are separate entries in the source; they are usually repeats but may differ in a detail not shown here. Equal values may be shown once. Read-outs that look alike come from different tables or passages of the source.

What was measured:
[1] = tested on: melanoma; conditions: for toxicity and side effects: patients
[2] = tested on: cancer cells; conditions: previous work, WO 02/05812
[3] = intralesional therapy, melanoma patients

N.N.[Cl][Pt][Cl] [cisplatin, reference compound]
objective response rate (ORR) [1, 3]: 38% and 53%
ORR ([1]; lesions having a median diameter of 3.0 cm): 44%
ORR ([1]; lesions with a median diameter of 0.6 cm): 53%

O=C1OC2(c3cc(I)c(O)c(I)c3Oc3c2cc(I)c(O)c3I)c2c(Cl)c(Cl)c(Cl)c(Cl)c21 [rose bengal, 4,5,6,7-tetrachloro-2′,4′,5′,7′-tetraiodofluorescein]
uptake into cancer cells versus normal cells [2]: preferential uptake into cancer cells but is essentially excluded from normal cells

IFN-α
complete response (CR) [1, 3]: 31%
objective response rate (ORR) [1, 3]: 45%
partial response (PR) [1, 3]: 14%
toxicity and side effects ([1]; intralesional therapy): significant toxicity and side effects

bleomycin [reference compound]
efficacy (in words) ([1]; single electrochemotherapy treatment, intralesional): Substantial efficacy

B1: IFN-γ: interferon-gamma, non-specific cytokine (protein, UniProt P01579 24-161, looked up)
Interferon gamma: QDPYVKEAENLKKYFNAGHSDVADNGTLFLGILKNWKEESDRKIMQSQIVSFYFKLFKNFKDDQSIQKSVETIKEDMNVKFFNSNKKKRDDFEKLTNYSVTDLNVQRKAIHELIQVMAELSPAAKTGKRKRSQMLFRG
response to IL therapy (in words) ([1]; intralesional interferon): either no result or transient response
toxicity and side effects ([1]; intralesional therapy): significant toxicity and side effects
